Test results taken from patent US20250275539A1, “APYRASE INHIBITORS” (Texas Crop Science, Inc., priority 2024, published 2025).

What follows are compounds tested on apyrase (assay: Apyrase inhibition assay (screen for apyrase inhibitors, phosphate release read at 630 nm)). Conditions: inhibitor conc at 1 mM (10 μl added), 3 mM ATP, pH 6.5, room temperature 1 hr.
Type: biochemical
Description: Apyrase inhibitors useful as enhancers of pesticidal activity are assessed using an in vitro assay. The method of Windsor, Bio Techniques 33:1024-1030 (November 2002) was used as follows
• 96 well plates were used for the assay: (Greiner bio-one: REF-655901-96 well, PS, F-bottom, Clear, Non-binding)
• Reaction Buffer: 60 mM Hepes; 3 mM MgCl2, 3 mM CaCl2) and 3 mM ATP (pH 6.5) • Development Buffer A: 2% aqueous ammonium molybdate • Development Buffer B: 11% ascorbic acid in 37.5% TCA in water • Stop buffer C: 2% trisodium citrate in 2% acetic acid solution in water
• Add 100 μl of reaction buffer to each well. • Add 10 μl of DMSO (control) or inhibitor/compound or compounds such as N1915 or orthovanadate to each well. (use inhibitor conc at 1 mM; orthovanadate at 2 mM and N1915 at 1 mM) • Add 10 μl of apyrase (concentration based on optimization—Dilute 1 U/μl enzyme to different concentrations such as 0.1 U, 0.05 U, 0.0025, 0.001 U, 0.0005 U—to find a good range) • Incubate plate at room temperature for 1 hr • Mix development buffer A and B in the ratio of 1:1.5 (just before use). • Add 50 μl of A: B mix in each well (incubate for 2 mins) • Add 50 μl of C in each well • Measure/Read Absorbance of plate @630 nm
Inhibitory data for the apyrase assay described above are provided for selected compounds in Table 3. D is inhibition of 0% to 10%, C is inhibition from 10% to 20%, B is inhibition from 20% to 30%, and A is inhibition above 30%. Blank entries signify compounds that were not tested.

Row | Inhibition | SMILES
1 | D (D is inhibition of 0% to 10%) | CCCc1ccc(S(=O)(=O)Nc2cccc(-c3nnnn3C3CC3)c2)cc1 [Compound A-28, N-(3-(1-cyclopropyl-1H-tetrazol-5-yl)phenyl)-4-propylbenzenesulfonamide]
2 | D (D is inhibition of 0% to 10%) | COc1ccccc1Oc1ccc(S(=O)(=O)Nc2cccc(C)c2)cc1 [Compound A-100, 4-(2-methoxyphenoxy)-N-(m-tolyl)benzenesulfonamide]
3 | B (B is inhibition from 20% to 30%) | Cn1ccnc(NS(=O)(=O)c2ccc(-c3ccccc3)cc2)c1=O [Compound A-23, N-(4-methyl-3-oxo-3,4-dihydropyrazin-2-yl)-[1,1′-biphenyl]-4-sulfonamide]
4 | C (C is inhibition from 10% to 20%) | CCCc1ccc(S(=O)(=O)Nc2ccc(S(=O)(=O)N(C)C)cc2)cc1 [Compound A-97, N,N-dimethyl-4-((4-propylphenyl)sulfonamido) benzenesulfonamide]
5 | C (C is inhibition from 10% to 20%) | Cc1cccc(NS(=O)(=O)c2ccc(Cl)cc2)c1 [Compound A-56, 4-chloro-N-(m-tolyl)benzenesulfonamide]
6 | D (D is inhibition of 0% to 10%) | CCCc1ccc(S(=O)(=O)Nc2cc(C)ccc2OC)cc1 [Compound A-88, N-(2-methoxy-5-methylphenyl)-4-propylbenzenesulfonamide]
7 | C (C is inhibition from 10% to 20%) | CCCc1ccc(S(=O)(=O)Nc2ccccc2-n2cnnn2)cc1 [Compound A-109, N-(2-(1H-tetrazol-1-yl)phenyl)-4-propylbenzenesulfonamide]
8 | D (D is inhibition of 0% to 10%) | CCCc1ccc(S(=O)(=O)Nc2ccccc2C(F)(F)F)cc1 [Compound A-73, 4-propyl-N-(2-(trifluoromethyl)phenyl) benzenesulfonamide]
9 | C (C is inhibition from 10% to 20%) | CCCc1ccc(S(=O)(=O)Nc2ccc(C)cc2Cl)cc1 [Compound A-82, N-(2-chloro-4-methylphenyl)-4-propylbenzenesulfonamide]
10 | D (D is inhibition of 0% to 10%) | CCCc1ccc(S(=O)(=O)Nc2ccc(NC(=O)C3CC3)cc2)cc1 [Compound A-31, N-(4-((4-propylphenyl)sulfonamido)phenyl)cyclopropanecarbox-amide]
11 | D (D is inhibition of 0% to 10%) | O=S(=O)(Nc1nnc[nH]1)c1ccc(-c2ccccc2)cc1 [Compound A-13, N-(4H-1,2,4-triazol-3-yl)-[1,1′-biphenyl]-4-sulfonamide]
12 | B (B is inhibition from 20% to 30%) | CCCc1ccc(S(=O)(=O)Nc2ccccc2CC)cc1 [Compound A-48, N-(2-ethylphenyl)-4-propylbenzenesulfonamide]
13 | D (D is inhibition of 0% to 10%) | O=S(=O)(Nc1ncccn1)c1ccc(-c2ccccc2)cc1 [Compound A-20, N-(pyrimidin-2-yl)-[1,1′-biphenyl]-4-sulfonamide]
14 | D (D is inhibition of 0% to 10%) | CCCc1ccc(S(=O)(=O)Nc2ccc(Cl)c(C(=O)O)c2)cc1 [Compound A-102, 2-chloro-5-((4-propylphenyl)sulfonamido) benzoic acid]
15 | D (D is inhibition of 0% to 10%) | Cc1cccc(NS(=O)(=O)c2ccccc2)c1 [Compound A-57, N-(m- tolyl)benzenesulfonamide]
16 | B (B is inhibition from 20% to 30%) | CCCc1ccc(S(=O)(=O)Nc2ccc(-c3nc(C)cc(=O)[nH]3)cc2)cc1 [Compound A-120, N-(4-(4-methyl-6-oxo-1,6-dihydropyrimidin-2-yl)phenyl)-4-propylbenzenesulfonamide]
17 | B (B is inhibition from 20% to 30%) | CCCc1ccc(S(=O)(=O)Nc2c(C)cccc2C)cc1 [Compound A-92, N-(2,6-dimethylphenyl)-4-propylbenzenesulfonamide]
18 | D (D is inhibition of 0% to 10%) | CCCc1ccc(S(=O)(=O)Nc2ccc(C)c(S(=O)(=O)N(C)C)c2)cc1 [Compound A-89, N,N,2-trimethyl-5-((4-propylphenyl)sulfonamido) benzenesulfonamide]
19 | A (A is inhibition above 30%) | CCCc1ccc(S(=O)(=O)Nc2ccc(S(=O)(=O)N(C)C3CCCCC3)cc2)cc1 [Compound A-79, N-cyclohexyl-N-methyl-4-((4-propylphenyl)sulfonamido) benzenesulfonamide]
20 | D (D is inhibition of 0% to 10%) | CCCc1ccc(S(=O)(=O)Nc2ccccc2-n2cnnc2C)cc1 [Compound A-22, N-(2-(3-methyl-4H-1,2,4-triazol-4-yl)phenyl)-4-propylbenzenesulfonamide]

Row | Inhibition | SMILES
21 | D (D is inhibition of 0% to 10%) | CCCc1ccc(S(=O)(=O)Nc2ccc3c(c2)OCCO3)cc1 [Compound A-54, N-(2,3-dihydrobenzo[b][1,4]dioxin-6-yl)-4-propylbenzenesulfonamide]
22 | C (C is inhibition from 10% to 20%) | CCCc1ccc(S(=O)(=O)Nc2c(C(C)C)cccc2C(C)C)cc1 [Compound A-76, N-(2,6-diisopropylphenyl)-4-propylbenzenesulfonamide]
23 | D (D is inhibition of 0% to 10%) | CCCc1ccc(S(=O)(=O)Nc2cc(Cl)c(OC)cc2OC)cc1 [Compound A-49, N-(5-chloro-2,4-dimethoxyphenyl)-4-propylbenzenesulfonamide]
24 | B (B is inhibition from 20% to 30%) | COc1ccc(OC)c(NS(=O)(=O)c2ccc(-c3ccccc3)cc2)c1 [Compound A-4, N-(2,5-dimethoxyphenyl)-[1,1′-biphenyl]-4-sulfonamide]
25 | C (C is inhibition from 10% to 20%) | CCCc1ccc(S(=O)(=O)Nc2cc(Cl)ccc2-n2cncn2)cc1 [Compound A-122, N-(5-chloro-2-(1H-1,2,4-triazol-1-yl)phenyl)-4-propylbenzenesulfonamide]
26 | C (C is inhibition from 10% to 20%) | CCCc1ccc(S(=O)(=O)Nc2cc(Cl)ccc2OC)cc1 [Compound A-74, N-(5-chloro-2-methoxyphenyl)-4-propylbenzenesulfonamide]
27 | D (D is inhibition of 0% to 10%) | CCCc1ccc(S(=O)(=O)Nc2ccc(C(N)=O)cc2)cc1 [Compound A-81, 4-((4-propylphenyl)sulfonamido) benzamide]
28 | A (A is inhibition above 30%) | Cc1cccc(NS(=O)(=O)c2ccc(NC(=O)Nc3ccc([N+](=O)[O-])cc3)cc2)c1 [Compound A-98, 4-(3-(4-nitrophenyl)ureido)-N-(m-tolyl)benzenesulfonamide]
29 | C (C is inhibition from 10% to 20%) | CCCc1ccc(S(=O)(=O)Nc2ccc(O)c(NC(C)=O)c2)cc1 [Compound A-38, N-(2-hydroxy-5-((4-propylphenyl)sulfonamido)phenyl)acetamide]
30 | D (D is inhibition of 0% to 10%) | CCCc1ccc(S(=O)(=O)Nc2ccccc2N2CCCC2=O)cc1 [Compound A-6, N-(2-(2-oxopyrrolidin-1-yl)phenyl)-4-propylbenzenesulfonamide]
31 | C (C is inhibition from 10% to 20%) | CCCc1ccc(S(=O)(=O)Nc2ccc(F)cc2C(=O)O)cc1 [Compound A-43, 5-fluoro-2-((4-propylphenyl)sulfonamido) benzoic acid]
32 | A (A is inhibition above 30%) | CCCc1ccc(S(=O)(=O)Nc2ccc3c(c2)CCN3C(C)=O)cc1 [Compound A-115, N-(1-acetylindolin-5-yl)-4-propylbenzenesulfonamide]
33 | D (D is inhibition of 0% to 10%) | CCCc1ccc(S(=O)(=O)Nc2cc(OC)c(Cl)cc2OC)cc1 [Compound A-68, N-(4-chloro-2,5-dimethoxyphenyl)-4-propylbenzenesulfonamide]
34 | B (B is inhibition from 20% to 30%) | NC1CCN(S(=O)(=O)c2ccc(-c3ccccc3)cc2)CC1 [Compound A-33, 1-([1,1′-biphenyl]-4-ylsulfonyl)piperidin-4-amine]
35 | C (C is inhibition from 10% to 20%) | Cc1cccc(NS(=O)(=O)c2ccc(C(N)=O)cc2)c1 [Compound A-18, 4-(N-(m-tolyl)sulfamoyl)benzamide]
36 | A (A is inhibition above 30%) | CCCc1ccc(S(=O)(=O)Nc2ccccc2NS(=O)(=O)c2ccc(F)cc2)cc1 [Compound A-94, 4-fluoro-N-(2-((4-propylphenyl)sulfonamido)phenyl)benzenesulfonamide]
37 | D (D is inhibition of 0% to 10%) | O=S(=O)(Nc1cc(-c2cccnc2)n[nH]1)c1ccc(-c2ccccc2)cc1 [Compound A-14, N-(3-(pyridin-3-yl)-1H-pyrazol-5-yl)-[1,1′-biphenyl]-4-sulfonamide]
38 | C (C is inhibition from 10% to 20%) | CCCc1ccc(S(=O)(=O)Nc2cccc(N3CCCC3=O)c2)cc1 [Compound A-7, N-(3-(2-oxopyrrolidin-1-yl)phenyl)-4-propylbenzenesulfonamide]
39 | C (C is inhibition from 10% to 20%) | CCCc1ccc(S(=O)(=O)Nc2ccccc2C(=O)OC)cc1 [Compound A-53, methyl 2-((4-propylphenyl)sulfonamido) benzoate]
